In series [1] the target is T1, wild-type human cardiac sodium channel, hNav1.5 (Homo sapiens, UniProt Q14524). Nature of the series: Late INa screening assay (late sodium current, PatchXpress whole cell patch clamp). Type of series: cell-based. The note with it: read-out: Late INa % blk.
Series [2] concerns the target T1, wild-type human cardiac sodium channel, hNav1.5. The series is described as follows: Peak INa screening assay (tonic block TB and use-dependent block UDB of peak sodium current). Type of series: cell-based. Particulars: compound at 10 μM.
The target of series [3] is hERG potassium channel (Homo sapiens, UniProt Q12809). The series is described as follows: hERG screening assay (PatchXpress patch clamp, CHO cell line). In general terms: Block of hERG is tested as a sign of cardiac risk.
Chain of hERG potassium channel (Q12809 whole entry): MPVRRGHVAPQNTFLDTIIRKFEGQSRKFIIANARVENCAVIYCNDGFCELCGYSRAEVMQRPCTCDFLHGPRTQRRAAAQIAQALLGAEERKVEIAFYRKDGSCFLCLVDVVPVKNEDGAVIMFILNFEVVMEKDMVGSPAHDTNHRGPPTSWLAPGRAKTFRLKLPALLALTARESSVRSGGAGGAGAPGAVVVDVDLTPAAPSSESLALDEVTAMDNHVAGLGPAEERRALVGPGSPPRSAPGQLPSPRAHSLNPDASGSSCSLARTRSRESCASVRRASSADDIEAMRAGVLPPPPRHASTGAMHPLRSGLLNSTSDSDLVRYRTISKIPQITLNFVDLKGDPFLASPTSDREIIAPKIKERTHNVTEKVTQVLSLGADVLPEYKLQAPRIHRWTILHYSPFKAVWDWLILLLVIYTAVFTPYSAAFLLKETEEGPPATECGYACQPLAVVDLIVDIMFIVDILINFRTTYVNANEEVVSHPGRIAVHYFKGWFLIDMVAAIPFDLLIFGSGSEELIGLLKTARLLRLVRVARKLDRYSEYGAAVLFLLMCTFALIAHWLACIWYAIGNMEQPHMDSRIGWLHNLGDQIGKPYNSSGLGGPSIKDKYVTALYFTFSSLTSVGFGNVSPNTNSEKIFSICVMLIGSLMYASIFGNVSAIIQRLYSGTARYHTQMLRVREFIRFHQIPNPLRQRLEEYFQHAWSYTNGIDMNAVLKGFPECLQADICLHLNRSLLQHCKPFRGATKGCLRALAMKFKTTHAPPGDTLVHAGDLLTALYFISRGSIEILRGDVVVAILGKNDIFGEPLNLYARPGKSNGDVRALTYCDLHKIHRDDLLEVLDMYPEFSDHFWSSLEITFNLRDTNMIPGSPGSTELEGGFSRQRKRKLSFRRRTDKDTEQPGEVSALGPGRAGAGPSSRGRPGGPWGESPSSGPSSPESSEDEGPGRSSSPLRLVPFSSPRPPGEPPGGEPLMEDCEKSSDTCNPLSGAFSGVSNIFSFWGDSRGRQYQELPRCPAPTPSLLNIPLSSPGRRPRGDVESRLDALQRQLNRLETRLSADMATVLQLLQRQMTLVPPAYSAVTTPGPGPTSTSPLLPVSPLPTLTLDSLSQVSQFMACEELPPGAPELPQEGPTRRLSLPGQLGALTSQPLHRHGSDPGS
Method: Compounds were screened to test their activity in blocking the hERG potassium channel. The hERG channel is heterologously expressed in a CHO (Chinese Hamster Ovary) cell line. Cells are maintained with standard tissue culture procedures and stable channel expression is maintained with 500 μg/ml G418 in the culture medium. Cells are harvested for testing on the PatchXpress automated patch clamp with Accumax (Innovative Cell Technologies, San Diego, Calif.) to isolate single cells.
The following solutions are used for electrophysiological recordings. The external solution contains: 2 mM CaCl2; 2 mM MgCl2; 4 mM KCl; 150 mM NaCl; 10 mM Glucose; 10 mM HEPES (pH 7.4 with 1M NaOH, osmolarity).
hERG channels are activated when the voltage is stepped to +20 mV from the −80 mV holding potential (see FIG. 3). During a 5 second step at +20 mV, the channels activate and then largely inactivate, so the currents are relatively small. Upon returning to −50 mV from +20 mV, hERG currents transiently become much larger as inactivation is rapidly removed and then the channel closes. The first step to −50 mV for 300 ms is used as a baseline for measuring the peak amplitude during the step to −50 mV after channel activation. The peak current at −50 mV is measured both under control conditions and after addition of compound.
All compounds are prepared as 10 mM DMSO stocks in glass vials. Stock solutions are mixed by vigorous vortexing and sonication for about 2 minutes at room temperature. For testing, compounds are diluted in glass vials using an intermediate dilution step in pure DMSO and then further diluted to working concentrations in external solution. Dilutions are prepared no longer than 20 minutes before use.
After achieving the whole-cell configuration, cells are monitored for 90 seconds to assess stability and washed with external solution for 66 seconds. The voltage protocol described above is then applied to the cells every 12 seconds and throughout the whole procedure. Only cells with stable recording parameters and meeting specified health criteria are allowed to enter the compound addition procedure.
External solution containing 0.1% DMSO (vehicle) is applied to the cells first to establish the control peak current amplitude. After allowing the current to stabilize for 3 to 5 minutes, 1 μM and then 10 μM test compounds are applied. Each compound concentration is added 4 times and cells are kept in test solution until the effect of the compound reaches steady state or for a maximum of 12 minutes. […] Washout in the external solution compartment is performed until the recovery of the current reaches steady state. Data are analyzed using DataXpress, Clampfit (Molecular Devices, Inc., Sunnyvale) and Origin 7 (Originlab Corp.)
Where [4] appears, read: tonic block, read-out: Tonic Peak INa % blk.
Where [5] appears, read: use-dependent block, read-out: UDB Peak INa % blk.

T1 sequence (Q14524 whole entry): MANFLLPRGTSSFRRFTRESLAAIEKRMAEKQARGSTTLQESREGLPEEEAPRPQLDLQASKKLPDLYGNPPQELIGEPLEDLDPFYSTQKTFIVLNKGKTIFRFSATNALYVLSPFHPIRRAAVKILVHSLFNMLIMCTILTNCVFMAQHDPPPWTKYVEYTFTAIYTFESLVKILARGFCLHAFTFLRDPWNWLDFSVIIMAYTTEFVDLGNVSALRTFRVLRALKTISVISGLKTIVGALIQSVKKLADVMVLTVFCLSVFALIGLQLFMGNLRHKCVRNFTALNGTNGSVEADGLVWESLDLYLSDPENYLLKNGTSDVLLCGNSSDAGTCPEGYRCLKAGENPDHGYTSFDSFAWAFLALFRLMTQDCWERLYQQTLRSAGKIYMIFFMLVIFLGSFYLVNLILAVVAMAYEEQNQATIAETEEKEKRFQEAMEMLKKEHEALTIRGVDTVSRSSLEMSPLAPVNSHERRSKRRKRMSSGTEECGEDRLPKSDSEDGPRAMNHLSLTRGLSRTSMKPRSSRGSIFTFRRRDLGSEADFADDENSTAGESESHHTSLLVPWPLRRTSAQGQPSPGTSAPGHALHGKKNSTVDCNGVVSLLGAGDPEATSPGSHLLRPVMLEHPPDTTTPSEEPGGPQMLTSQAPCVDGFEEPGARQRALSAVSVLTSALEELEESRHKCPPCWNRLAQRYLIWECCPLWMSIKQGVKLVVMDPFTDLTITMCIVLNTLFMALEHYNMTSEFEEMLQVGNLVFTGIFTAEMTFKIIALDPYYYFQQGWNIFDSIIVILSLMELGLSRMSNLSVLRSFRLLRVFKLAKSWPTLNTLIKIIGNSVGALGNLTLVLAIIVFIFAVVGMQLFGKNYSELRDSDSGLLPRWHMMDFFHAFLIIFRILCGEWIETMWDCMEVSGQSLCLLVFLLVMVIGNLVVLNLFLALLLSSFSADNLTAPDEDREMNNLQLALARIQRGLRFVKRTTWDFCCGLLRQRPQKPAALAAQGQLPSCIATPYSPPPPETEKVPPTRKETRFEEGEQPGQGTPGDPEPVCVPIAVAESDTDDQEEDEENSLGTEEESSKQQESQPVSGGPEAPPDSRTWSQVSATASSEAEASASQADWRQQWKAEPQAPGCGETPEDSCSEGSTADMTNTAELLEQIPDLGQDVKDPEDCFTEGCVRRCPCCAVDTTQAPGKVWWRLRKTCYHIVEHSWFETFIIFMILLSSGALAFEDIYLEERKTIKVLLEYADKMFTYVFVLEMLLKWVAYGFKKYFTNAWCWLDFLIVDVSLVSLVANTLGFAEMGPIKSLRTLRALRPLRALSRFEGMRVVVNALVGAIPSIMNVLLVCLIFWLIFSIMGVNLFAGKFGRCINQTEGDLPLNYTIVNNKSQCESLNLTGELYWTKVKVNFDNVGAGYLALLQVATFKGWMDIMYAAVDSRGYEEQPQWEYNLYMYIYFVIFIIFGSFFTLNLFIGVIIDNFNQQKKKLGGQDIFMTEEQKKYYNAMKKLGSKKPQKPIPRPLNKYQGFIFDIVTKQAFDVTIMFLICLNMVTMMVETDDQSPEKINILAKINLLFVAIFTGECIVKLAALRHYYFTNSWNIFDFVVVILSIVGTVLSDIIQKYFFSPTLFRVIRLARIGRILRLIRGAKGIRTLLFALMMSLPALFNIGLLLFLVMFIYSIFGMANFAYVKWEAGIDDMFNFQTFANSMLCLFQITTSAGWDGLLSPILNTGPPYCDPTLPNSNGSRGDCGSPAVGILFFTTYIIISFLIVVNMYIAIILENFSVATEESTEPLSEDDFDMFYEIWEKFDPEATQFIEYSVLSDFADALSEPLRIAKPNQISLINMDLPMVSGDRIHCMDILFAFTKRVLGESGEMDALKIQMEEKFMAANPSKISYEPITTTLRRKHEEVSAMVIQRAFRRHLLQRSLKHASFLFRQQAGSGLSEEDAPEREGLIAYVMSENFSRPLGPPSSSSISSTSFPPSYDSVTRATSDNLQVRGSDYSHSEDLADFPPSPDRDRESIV

As for `CC1=C(C(=O)OC(C)C)C(c2ccc3ccccc3c2)C2=C(CCCC2=O)N1` (stereo not shown) [PT-157, isopropyl 2-methyl-4-(naphthalen-2-yl)-5-oxo-1,4,5,6,7,8-hexahydroquinoline-3-carboxylate], the values for the inhibition at 10 µM in series [1] (compound at 10 μM) and in series [2] (setting [4]) were 62.3% and 15.3%, respectively. For the same compound, the “hERG Patch Clamp hERG % blk” value in series [3] (1 μM) is listed as 16.0%; in series [3] (10 μM), 37.1%.
Turning to `CC1=C(C(=O)N2CCC(c3ccc(C(=O)O)cc3)CC2)C(c2cccc3ccccc23)C2=C(CCCC2=O)N1` (stereo not shown) [PT-173, 4-(1-(2-methyl-4-(naphthalen-1-yl)-5-oxo-1,4,5,6,7,8-hexahydroquinoline-3-carbonyl)piperidin-4-yl)benzoic acid], the inhibition at 10 µM in series [1] (compound at 10 μM) turned out to be 52.6%; in series [2] (setting [4]), 0%. Moreover, the “hERG Patch Clamp hERG % blk” value in series [3] (1 μM) is recorded as 12.0%; in series [3] (10 μM), 37.0%.
The like results for `CCOC(=O)C1=C(CC)NC(CC)=C(C(=O)OCC)C1c1ccc(Br)s1` [PT-181, diethyl 4-(5-bromothiophen-2-yl)-2,6-diethyl-1,4-dihydropyridine-3,5-dicarboxylate] were, in that order, 91.7%, 76.5%, 10.5% and 73.0%.
The like results for `CCOC(=O)C1=C(C)N(C)C(C)=C(C(=O)OCC)C1c1cccc2ccccc12` [PT-191, diethyl 1,2,6-trimethyl-4-(naphthalen-1-yl)-1,4-dihydropyridine-3,5-dicarboxylate] were, in that order, 63.2%, 0%, 26.5% and 68.0%.
As to `CCOC(=O)C1=C(C)Nc2nnnn2C1c1cccc2ccccc12` (stereo not shown) [PT-192, ethyl 5-methyl-7-(naphthalen-1-yl)-4,7-dihydrotetrazolo[1,5-a]pyrimidine-6-carboxylate], the inhibition at 10 µM in series [1] came to 52.3%; in series [2] (setting [4]), 0%. In addition, the “hERG Patch Clamp hERG % blk” value in series [3] (1 μM) came out at 23.0%; in series [3] (10 μM) it was 29.0%.
Take `CCOC(=O)C1=C(C)Nc2nc(C#N)c(C#N)n2C1c1cccc2ccccc12` (stereo not shown) [PT-194, ethyl 2,3-dicyano-7-methyl-5-(naphthalen-1-yl)-5,8-dihydroimidazo[1,2-a]pyrimidine-6-carboxylate]: the inhibition at 10 µM in series [1] (compound at 10 μM) amounted to 76.1%; in series [2] (setting [4]), 19.1%. Further, the “hERG Patch Clamp hERG % blk” value in series [3] (1 μM) is given as 25.0%; in series [3] (10 μM), 91.0%.
For `CC1=C(C(=O)OCc2ccccc2)C(c2cccc3ccccc23)n2nnnc2N1C` (stereo not shown) [PT-195, benzyl 4,5-dimethyl-7-(naphthalen-1-yl)-4,7-dihydrotetrazolo[1,5-a]pyrimidine-6-carboxylate] the same measures were 52.7%, 1.7%, 12.5% and 49.0%.
The like results for `CC1=C(C(=O)OCc2ccccc2)[C@@H](c2ccccc2-c2ccc(C)o2)n2nnnc2N1` [PT-235, (R)-benzyl 5-methyl-7-(2-(5-methylfuran-2-yl)phenyl)-4,7-dihydrotetrazolo[1,5-a]pyrimidine-6-carboxylate] were, in that order, 71.4%, 28.1%, 10.0% and 41.5%.
For `CC1=C(C(=O)OCc2ccccc2)C(c2c(-c3ccc(C(=O)O)cc3)sc3ccccc23)n2nnnc2N1` (stereo not shown) [PT-294, 4-(3-(6-(benzyloxycarbonyl)-5-methyl-4,7-dihydrotetrazolo[1,5-a]pyrimidin-7-yl)benzo[b]thiophen-2-yl)benzoic acid] the same measures were 67.2%, 24.4%, 12.5% and 15.5%.
As to `COc1cc(Cl)ccc1COC(=O)C1=C(C)Nc2nnnn2C1c1c(Cl)cccc1Cl` (stereo not shown) [PT-306, 4-chloro-2-methoxybenzyl 7-(2,6-dichlorophenyl)-5-methyl-4,7-dihydrotetrazolo[1,5-a]pyrimidine-6-carboxylate], the inhibition at 10 µM in series [1] (compound at 10 μM) stood at 70.4%; in series [2] (setting [4]), 20.1%; in series [2] (setting [5]), 9%. The “hERG Patch Clamp hERG % blk” value came to 10.0% in series [3] (1 μM) and 48.5% in series [3] (10 μM).
Turning to `COc1cc(Cl)ccc1COC(=O)C1=C(C)Nc2nnnn2C1c1c(C)cccc1C` (stereo not shown) [PT-307, 4-chloro-2-methoxybenzyl 7-(2,6-dimethylphenyl)-5-methyl-4,7-dihydrotetrazolo[1,5-a]pyrimidine-6-carboxylate], the values for the inhibition at 10 µM in series [1] (compound at 10 μM), in series [2] (setting [4]) and in series [2] (setting [5]) were 84.9%, 14% and 16.6%, respectively. Also, the figures for the “hERG Patch Clamp hERG % blk” value in series [3] (1 μM) and in series [3] (10 μM) were 10.0% and 62.5%, respectively.
As for `C=CCOC(=O)C1=C(C)Nc2nnnn2C1c1cccc2ccccc12` (stereo not shown) [PT-319, allyl 5-methyl-7-(naphthalen-1-yl)-4,7-dihydrotetrazolo[1,5-a]pyrimidine-6-carboxylate], the inhibition at 10 µM in series [1] (compound at 10 μM) turned out to be 55.7%; in series [2] (setting [4]), 4.5%. In addition, the figures for the “hERG Patch Clamp hERG % blk” value in series [3] (1 μM) and in series [3] (10 μM) were 10.0% and 41.0%, respectively.
With `CC1=C(C(=O)OCc2ccccc2)C(c2ccc3ccccc3c2)c2c(C)n[nH]c2N1` (stereo not shown) [PT-325, benzyl 3,6-dimethyl-4-(naphthalen-2-yl)-4,7-dihydro-1H-pyrazolo[3,4-b]pyridine-5-carboxylate], the inhibition at 10 µM in series [1] (compound at 10 μM) was 53.8%; in series [2] (setting [4]), 19.9%; in series [2] (setting [5]), 24.3%. In addition, the figures for the “hERG Patch Clamp hERG % blk” value in series [3] (1 μM) and in series [3] (10 μM) were 10.0% and 36.0%, respectively.
Take `CC1=C(C(=O)OCc2ccccc2)C(c2ccccc2N2CCN(S(C)(=O)=O)CC2)n2nnnc2N1` (stereo not shown) [PT-339, benzyl 5-methyl-7-(2-(4-(methylsulfonyl)piperazin-1-yl)phenyl)-4,7-dihydrotetrazolo[1,5-a]pyrimidine-6-carboxylate]: the values for the inhibition at 10 µM in series [1] (compound at 10 μM), in series [2] (setting [4]) and in series [2] (setting [5]) were 51.4%, 22.2% and 9%, respectively. The “hERG Patch Clamp hERG % blk” value in series [3] (1 μM) worked out at 11.5%; in series [3] (10 μM) it was 43.5%.
For `CC1=C(C(=O)OCc2ccccc2)C(c2ccccc2N2CCN(C)CC2)n2nnnc2N1` (stereo not shown) [PT-340, benzyl 5-methyl-7-(2-(4-methylpiperazin-1-yl)phenyl)-4,7-dihydrotetrazolo[1,5-a]pyrimidine-6-carboxylate], the values for the inhibition at 10 µM in series [1] (compound at 10 μM) and in series [2] (setting [4]) were 71.9% and 89.1%, respectively. Besides, the “hERG Patch Clamp hERG % blk” value was 57.0% in series [3] (1 μM) and 93.5% in series [3] (10 μM).
Take `CC1=C(C(=O)OCc2ccccc2)C(c2ccccc2-c2cccc(NS(C)(=O)=O)c2)n2nnnc2N1` (stereo not shown) [PT-348, benzyl 5-methyl-7-(3′-(methylsulfonamido)biphenyl-2-yl)-4,7-dihydrotetrazolo[1,5-a]pyrimidine-6-carboxylate]: the inhibition at 10 µM in series [1] (compound at 10 μM) worked out at 71.6%; in series [2] (setting [4]), 17.2%. In addition, the “hERG Patch Clamp hERG % blk” value in series [3] (1 μM) turned out to be 10.0%; in series [3] (10 μM), 38.5%.
Regarding `CC1=C(C(=O)OCc2ccccc2)C(c2nccs2)c2cn[nH]c2N1` (stereo not shown) [PT-369, benzyl 6-methyl-4-(thiazol-2-yl)-4,7-dihydro-1H-pyrazolo[3,4-b]pyridine-5-carboxylate], the inhibition at 10 µM in series [1] (compound at 10 μM) was determined as 47.3%; in series [2] (setting [4]), 26.3%; in series [2] (setting [5]), 13.5%. The “hERG Patch Clamp hERG % blk” value was found to be 10.0% in series [3] (1 μM) and 25.0% in series [3] (10 μM).
Consider `COc1ccc(C2C(C(=O)OCc3ccccc3)=C(C)Nc3nnnn32)c(C#N)c1` (stereo not shown) [PT-389, benzyl 7-(2-cyano-4-methoxyphenyl)-5-methyl-4,7-dihydrotetrazolo[1,5-a]pyrimidine-6-carboxylate], for which the results for the inhibition at 10 µM in series [1] (compound at 10 μM) and in series [2] (setting [4]) were 49.7% and -1.6%, respectively. Besides, the “hERG Patch Clamp hERG % blk” value in series [3] (1 μM) came to 23.5%; in series [3] (10 μM), 69.0%.
In the case of `CCOC(=O)C1=C(C)NC(C)=C(C(=O)OCC)C1c1ccccc1Br` [PT-430, diethyl 4-(2-bromophenyl)-2,6-dimethyl-1,4-dihydropyridine-3,5-dicarboxylate], the values for the inhibition at 10 µM in series [1] (compound at 10 μM), in series [2] (setting [4]) and in series [2] (setting [5]) were 95.3%, 91% and 55.6%, respectively. In addition, the “hERG Patch Clamp hERG % blk” value is 10.0% in series [3] (1 μM) and 21.5% in series [3] (10 μM).
The like results for `CCOC(=O)C1=C(C)Nc2[nH]ncc2C1c1ccc(OC)cc1OCc1ccccc1` (stereo not shown) [PT-445, ethyl 4-(2-(benzyloxy)-4-methoxyphenyl)-6-methyl-4,7-dihydro-1H-pyrazolo[3,4-b]pyridine-5-carboxylate] were, in that order, 62.2%, 49.6%, 31.6%, 10.5% and 50.0%.
In the case of `CCOC(=O)C1=C(C)Nc2nnnn2C1c1cccc(Oc2ccccc2)c1` (stereo not shown) [PT-464, ethyl 5-methyl-7-(3-phenoxyphenyl)-4,7-dihydrotetrazolo[1,5-a]pyrimidine-6-carboxylate], the inhibition at 10 µM is 55.8% in series [1] (compound at 10 μM) and 2.7% in series [2] (setting [4]). Besides, the “hERG Patch Clamp hERG % blk” value in series [3] (1 μM) is 11.0%; in series [3] (10 μM), 55.0%.
